Measurements reported in patent US7015343B2, “Sulphonated dehydrogenated sylvate, the preparation and use” (Shanghai Xingkang Pharmaceuticals Research & Development …, priority 2001, dated 2006).

Key:
[1] = system: gastric juice secretion of Pylorus-ligated rats; assay: Gastric juice secretion and acidity of pylorus-ligated rats after oral administration; type: in vivo, Wister rats; design: T.AC / MEL (10^3) / MEAH: unit not given here; settings: for Total volume of gastric juice: 5 hours after pylorus ligation; for Total volume of gastric juice / MEL (10^3) / MEAH: n = 8, X ± S; for Inhibition ratio for total acid amount / Inhibition to gastric juice secretion: versus control group; for MEL (10^3): acid concentration of gastric juice; for MEAH: total acid amount in gastric juice; for T.AC: volume of 0.01 N NaOH to titrate to pH 7, n = 8, X ± S
Description: (§1) Wister rats (200–250 g), half were male and half were female, were starved for 48 hours and the pylori were ligated. Immediately after ligation, a suspension or solution of a salt in distilled water was administered orally into the stomachs in an amount of 2.0 ml/Kg; while 0.5% MC of the same volume was given to the control group. After administration of the test salt for 5 hours, the rats were killed. Their cardias were ligated and their stomachs were taken out. The gastric juice was collected into centrifuge tube and centrifuged at 2500 rpm for 10 min, the volume after residue removed was recorded as the total volume of the gastric juice. The acidity of gastric juice and pepsin activity were measured with the supernatant of the gastric juice after centrifuging.
(a) Measurement of the acidity of gastric juice: with 0.5 ml of gastric juice taken exactly, about 20 ml of distilled water added in, it was measured with pH meter. The mixture was titrated to pH 7 with 0.01 N NaOH solution, and the volume of 0.01 N NaOH solution used was recorded. Then, the volume (T.AC) was calculated corresponding to titrating to pH 7 with 0.01 N NaOH solution. Acid concentration of gastric juice (MEL)=(T.AC/2)×1000 Total acid amount in gastric juice (MEAH)=MEL×(total volume of gastric juice/1000) Inhibiting ratio on the secretion of gastric juice %=[(volume of the gastric juice of the control group−volume of the gastric juice of the treatment group)/volume of the gastric juice of the control group]×100% Inhibiting ratio on the total acid amount in gastric juice %=[(MEAH of the control group−MEAH of the treatment group)/MEAH of the control group]×100%

pepsin = assay: Pepsin activity in gastric juice of pylorus-ligated rats (Mett tube method); type: in vivo, Wister rats; settings: for activity of pepsin: n = 8, X ± S; for Inhibition ratio for pepsin activity: versus control group
Description: as §1
(b) Enzyme assay for pepsin (Mett tube method): 0.5 ml of gastric juice was added exactly into a clean 50 ml flask with a plug, the flask was shaken to get a homogeneous solution, then, 15.0 ml of 0.05 N HCL solution was added in, in the meantime, two 3.0–4.0 cm long Mett tubes were put inside. The flask was plugged, shaken to get a homogeneous solution, left to stand at 37° C. for 24 hours. The length (mm) of the transparent part at the two ends of each Mett tube was measured precisely to get four values. The mean value was based on the four values, and the pepsin activity was calculated. Inhibiting ratio of pepsin activity %=[(pepsin activity of the control group−pepsin activity of the treatment group)/pepsin activity of the control group]×100% Test Result: […]

KunMing mice = assay: Acute toxicity of NIPWZ, oral administration to mice (LD50, Bliss's method); type: in vivo; settings: for Death distribution 2 h / Death distribution 4 h / Death distribution 24 h / Death distribution 72 h / Number of death (F:M) / Ratio of death: 10 mice
Description: 50 second grade KunMing mice were provided, each weighing 20.0±1.2 g, randomly divided into 5 groups, 10 for each group, 5 male and 5 female. Medicine was administered intra-gastrically by 40 ml/Kg once, the solvent was 0.5% MC. The doses for the 5 groups were: 4480 mg/Kg, 3000 mg/Kg, 2010 mg/Kg, 1350 mg/Kg, 910 mg/Kg, the ratio of any two abutted doses was 1:0.67. […] Wherein the LD50 was determined by Bliss's method.

Salts of Sulfodehydroabietic Acid with Bismuth [NIPWB]
Total volume of gastric juice ([1]; oral 50 mg/Kg): 6.5 ± 2.5 mL
Inhibition ratio for total acid amount ([1]; oral 50 mg/Kg): 45.7%
Inhibition to gastric juice secretion ([1]; oral 50 mg/Kg): 28.6%
MEL (10^3) ([1]; oral 50 mg/Kg): 2.42 ± 1.79
MEAH ([1]; oral 50 mg/Kg): 15.9 ± 4.5
T.AC ([1]; oral 50 mg/Kg): 4.85 ± 3.58
Total volume of gastric juice ([1]; oral 100 mg/Kg): 7.6 ± 2.9 mL
Inhibition ratio for total acid amount ([1]; oral 100 mg/Kg): 44.4%
Inhibition to gastric juice secretion ([1]; oral 100 mg/Kg): 16.5%
MEL (10^3) ([1]; oral 100 mg/Kg): 2.16 ± 1.65
MEAH ([1]; oral 100 mg/Kg): 16.3 ± 4.7
T.AC ([1]; oral 100 mg/Kg): 4.32 ± 3.30
activity of pepsin (pepsin; oral 50 mg/Kg): 0.74 ± 0.61 U
Inhibition ratio for pepsin activity (pepsin; oral 50 mg/Kg): 50.0%
activity of pepsin (pepsin; oral 100 mg/Kg): 0.36 ± 0.20 U
Inhibition ratio for pepsin activity (pepsin; oral 100 mg/Kg): 75.7%

Salts of Sulfodehydroabietic Acid with Zinc [NIPWZ]
Total volume of gastric juice ([1]; oral 50 mg/Kg): 7.2 ± 2.9 mL
Inhibition ratio for total acid amount ([1]; oral 50 mg/Kg): 52.9%
Inhibition to gastric juice secretion ([1]; oral 50 mg/Kg): 20.9%
MEL (10^3) ([1]; oral 50 mg/Kg): 1.92 ± 1.47
MEAH ([1]; oral 50 mg/Kg): 13.8 ± 4.2
T.AC ([1]; oral 50 mg/Kg): 3.83 ± 2.93
Total volume of gastric juice ([1]; oral 100 mg/Kg): 7.0 ± 3.1 mL
Inhibition ratio for total acid amount ([1]; oral 100 mg/Kg): 47.1%
Inhibition to gastric juice secretion ([1]; oral 100 mg/Kg): 23.1%
MEL (10^3) ([1]; oral 100 mg/Kg): 2.21 ± 1.32
MEAH ([1]; oral 100 mg/Kg): 15.5 ± 4.1
T.AC ([1]; oral 100 mg/Kg): 4.41 ± 2.64
activity of pepsin (pepsin; oral 50 mg/Kg): 0.88 ± 0.33 U
Inhibition ratio for pepsin activity (pepsin; oral 50 mg/Kg): 40.5%
activity of pepsin (pepsin; oral 100 mg/Kg): 0.66 ± 0.34 U
Inhibition ratio for pepsin activity (pepsin; oral 100 mg/Kg): 55.4%
Death distribution 2 h (KunMing mice; mice, oral 910 mg/Kg): 0
Death distribution 4 h (KunMing mice; mice, oral 910 mg/Kg): 0
Death distribution 24 h (KunMing mice; mice, oral 910 mg/Kg): 0
Death distribution 72 h (KunMing mice; mice, oral 910 mg/Kg): 0
Number of death (F:M) (KunMing mice; mice, oral 910 mg/Kg): 0 (0:0)
Ratio of death (KunMing mice; mice, oral 910 mg/Kg): 0%
Death distribution 2 h (KunMing mice; mice, oral 1350 mg/Kg): 0
Death distribution 4 h (KunMing mice; mice, oral 1350 mg/Kg): 0
Death distribution 24 h (KunMing mice; mice, oral 1350 mg/Kg): 3
Death distribution 72 h (KunMing mice; mice, oral 1350 mg/Kg): 1
Number of death (F:M) (KunMing mice; mice, oral 1350 mg/Kg): 4 (1:3)
Ratio of death (KunMing mice; mice, oral 1350 mg/Kg): 40%
Death distribution 2 h (KunMing mice; mice, oral 2010 mg/Kg): 0
Death distribution 4 h (KunMing mice; mice, oral 2010 mg/Kg): 0
Death distribution 24 h (KunMing mice; mice, oral 2010 mg/Kg): 7
Death distribution 72 h (KunMing mice; mice, oral 2010 mg/Kg): 0
Number of death (F:M) (KunMing mice; mice, oral 2010 mg/Kg): 7 (5:2)
Ratio of death (KunMing mice; mice, oral 2010 mg/Kg): 70%
Death distribution 2 h (KunMing mice; mice, oral 3000 mg/Kg): 0
Death distribution 4 h (KunMing mice; mice, oral 3000 mg/Kg): 7
Death distribution 24 h (KunMing mice; mice, oral 3000 mg/Kg): 1
Death distribution 72 h (KunMing mice; mice, oral 3000 mg/Kg): 0
Number of death (F:M) (KunMing mice; mice, oral 3000 mg/Kg): 8 (5:3)
Ratio of death (KunMing mice; mice, oral 3000 mg/Kg): 80%
Death distribution 2 h (KunMing mice; mice, oral 4480 mg/Kg): 7
Death distribution 4 h (KunMing mice; mice, oral 4480 mg/Kg): 3
Death distribution 24 h (KunMing mice; mice, oral 4480 mg/Kg): 0
Death distribution 72 h (KunMing mice; mice, oral 4480 mg/Kg): 0
Number of death (F:M) (KunMing mice; mice, oral 4480 mg/Kg): 10 (5:5)
Ratio of death (KunMing mice; mice, oral 4480 mg/Kg): 100%
LD50 (KunMing mice; mice, oral administration, Bliss's method): 1728 mg/kg
LD50 as multiple of the clinic dose (KunMing mice; taking 1000 mg/day for a 60 Kg human being): approximately 104 times
